Legend:
[1] = molecular target: T1, p110α Type Ia human PI3K (Homo sapiens, UniProt P42336); experiment: In vitro PI3K enzyme assay (AlphaScreen), Test (a); assay type: biochemical; settings: read-out: IC50 versus p110α Type Ia human PI3K
T1 construct: full length DNA of each of the p110α, p110β and p110δ Type Ia human PI3K p110 isoforms; 6-His; made in house; Grp1 PH domain in E. coli
Text: The assay used AlphaScreen technology (Gray et al., Analytical Biochemistry, 2003, 313: 234-245) to determine the ability of test compounds to inhibit phosphorylation by recombinant Type I PI3K enzymes of the lipid PI(4,5)P2.
DNA fragments encoding human PI3K catalytic and regulatory subunits were isolated from cDNA libraries using standard molecular biology and PCR cloning techniques. The selected DNA fragments were used to generate baculovirus expression vectors. In particular, full length DNA of each of the p110α, p110β and p110δ Type Ia human PI3K p110 isoforms (EMBL Accession Nos. HSU79143, S67334, Y10055 for p110α, p110β and p110δ respectively) were sub-cloned into a pDEST10 vector (Invitrogen Limited, Fountain Drive, Paisley, UK). The vector is a Gateway-adapted version of Fastbac 1 containing a 6-His epitope tag. […]
Biotinylated-DiC8-PI(3,4,5)P3 (50 nM; Cell Signals Inc., Catalogue No. 107), recombinant purified GST-Grp1 PH protein (2.5 nM) and AlphaScreen Anti-GST donor and acceptor beads (100 ng; Packard Bioscience Limited, Station Road, Pangbourne, Berkshire, UK, Catalogue No. 6760603M) were added and the assay plates were left for about 5 to 20 hours at room temperature in the dark. The resultant signals arising from laser light excitation at 680 nm were read using a Packard AlphaQuest instrument. […]

[2] = tested on: phosphorylation of Serine 473 in Akt; experiment: In vitro phospho-Ser473 Akt assay in MDA-MB-468 cells, Test (c); assay type: cell-based; settings: Homo sapiens, read-out: IC50, inhibition of phosphorylation of Serine 473 in Akt
Procedure: This assay determines the ability of test compounds to inhibit phosphorylation of Serine 473 in Akt as assessed using Acumen Explorer technology (TTP LabTech Limited, Royston, Herts, SG8 6EE, UK), a plate reader that can be used to rapidly quantitate features of images generated by laser-scanning.
A MDA-MB-468 human breast adenocarcinoma cell line (LGC Promochem, Teddington, Middlesex, UK, Catalogue No. HTB-132) was routinely maintained at 37° C. with 5% CO2 up to a confluency of 70-90% in DMEM containing 10% FCS and 1% L-glutamine.
For the assay, the cells were detached from the culture flask using ‘Accutase’ (Innovative Cell Technologies Inc., San Diego, Calif., USA; Catalogue No. AT104) using standard tissue culture methods and resuspended in media to give 5.5×10^4 cells per ml. Aliquots (90 μl) were seeded into each of the inner 60 wells of a black ‘Costar’ 96-well plate (Corning Inc., NY, USA; Catalogue No. 3904) to give a density of ˜5000 cells per well. Aliquots (90 μl) of culture media were placed in the outer wells to prevent edge effects. [An alternative cell handling procedure involved the maintenance of the cells in a ‘SelecT’ robotic device (The Automation Partnership, Royston, Herts SG8 5WY, UK). Cells were resuspended in media to give 5×10^4 cells per ml. Aliquots (100 μl) were seeded into the wells of a black ‘Costar’ 96-well plate.] […]

T1 sequence (P42336 whole entry, the tested form may be a part, canonical isoform): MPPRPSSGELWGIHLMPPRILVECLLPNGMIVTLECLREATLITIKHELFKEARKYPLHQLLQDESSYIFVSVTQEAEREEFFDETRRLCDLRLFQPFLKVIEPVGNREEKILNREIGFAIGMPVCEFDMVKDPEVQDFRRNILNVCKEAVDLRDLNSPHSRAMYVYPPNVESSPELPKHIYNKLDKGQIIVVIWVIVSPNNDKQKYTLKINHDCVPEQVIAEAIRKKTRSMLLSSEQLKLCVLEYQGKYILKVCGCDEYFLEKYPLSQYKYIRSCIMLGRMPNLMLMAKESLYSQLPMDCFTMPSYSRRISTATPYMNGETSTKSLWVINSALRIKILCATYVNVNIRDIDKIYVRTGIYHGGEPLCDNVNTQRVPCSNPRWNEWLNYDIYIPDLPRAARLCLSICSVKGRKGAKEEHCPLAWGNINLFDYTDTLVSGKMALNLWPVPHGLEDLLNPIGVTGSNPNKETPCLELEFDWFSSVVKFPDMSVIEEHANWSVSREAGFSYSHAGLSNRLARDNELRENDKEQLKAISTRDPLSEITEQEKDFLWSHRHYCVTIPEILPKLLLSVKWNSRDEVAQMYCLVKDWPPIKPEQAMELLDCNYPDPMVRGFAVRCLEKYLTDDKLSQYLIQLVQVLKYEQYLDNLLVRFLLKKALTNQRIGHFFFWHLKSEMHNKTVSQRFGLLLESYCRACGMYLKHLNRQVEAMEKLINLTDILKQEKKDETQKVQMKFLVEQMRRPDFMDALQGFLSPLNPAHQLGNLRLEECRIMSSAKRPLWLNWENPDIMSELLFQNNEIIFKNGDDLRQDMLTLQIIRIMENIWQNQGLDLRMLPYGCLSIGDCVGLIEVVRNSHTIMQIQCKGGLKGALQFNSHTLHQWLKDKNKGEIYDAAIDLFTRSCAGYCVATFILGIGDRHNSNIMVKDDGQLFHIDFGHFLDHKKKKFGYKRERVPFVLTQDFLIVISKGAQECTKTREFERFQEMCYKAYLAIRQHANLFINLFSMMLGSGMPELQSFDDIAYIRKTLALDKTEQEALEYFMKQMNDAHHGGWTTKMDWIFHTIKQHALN
T1 sequence (P27986 whole entry partner, the tested form may be a part, canonical isoform): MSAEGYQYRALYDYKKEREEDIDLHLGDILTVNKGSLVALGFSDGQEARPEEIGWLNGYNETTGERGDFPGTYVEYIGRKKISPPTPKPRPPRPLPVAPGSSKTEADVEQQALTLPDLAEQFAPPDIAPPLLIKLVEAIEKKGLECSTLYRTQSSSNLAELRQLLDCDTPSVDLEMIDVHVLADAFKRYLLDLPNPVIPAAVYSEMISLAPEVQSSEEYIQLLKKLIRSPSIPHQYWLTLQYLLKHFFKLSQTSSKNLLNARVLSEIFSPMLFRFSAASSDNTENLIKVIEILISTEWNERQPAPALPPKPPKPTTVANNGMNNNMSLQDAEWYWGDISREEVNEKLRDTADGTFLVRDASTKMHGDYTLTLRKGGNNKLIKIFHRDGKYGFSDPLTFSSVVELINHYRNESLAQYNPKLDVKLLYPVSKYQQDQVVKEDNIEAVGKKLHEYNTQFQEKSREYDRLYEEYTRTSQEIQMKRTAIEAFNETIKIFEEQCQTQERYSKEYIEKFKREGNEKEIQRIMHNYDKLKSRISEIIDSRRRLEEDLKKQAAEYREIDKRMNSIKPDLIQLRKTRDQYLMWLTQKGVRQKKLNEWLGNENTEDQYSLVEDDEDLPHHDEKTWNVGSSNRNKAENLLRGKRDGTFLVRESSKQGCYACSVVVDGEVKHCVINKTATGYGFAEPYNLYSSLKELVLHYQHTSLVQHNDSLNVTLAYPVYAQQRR

Structure (SMILES): NCC(=O)N1CC=C(c2cc(N3CCOCC3)nc(-n3c(C(F)F)nc4ccccc43)n2)CC1 [Example 1, 2-(2-difluoromethylbenzimidazol-1-yl)-4-(N-glycyl-1,2,3,6-tetrahydropyridin-4-yl)-6-morpholinopyrimidine]
- IC50 [1]: ~100 nM
- IC50 [2]: ~100 nM

Structure (SMILES): NCC(=O)N1CCC(c2cc(N3CCOCC3)nc(-n3c(C(F)F)nc4ccccc43)n2)CC1 [Example 2, 2-(2-difluoromethylbenzimidazol-1-yl)-4-(N-glycylpiperidin-4-yl)-6-morpholinopyrimidine]
- IC50 [1]: ~300 nM
- IC50 [2]: ~100 nM
